Measured values taken from US10130605B2, “Compositions for use in treating inflammatory bowel diseases and intestinal colitis” (TaiRx Inc., priority 2017, dated 2018).
“Also recorded” adds a separate entry of the source.

Experiments:
Assay type in all cases: in vivo
DSS-induced colitis mice [1] = assay: DSS-induced acute colitis in mouse: body weight, colon length, colon weight, general condition; conditions: for Colon length / Colon weight / Colon-to-BW ratio: colon-to-body weight ratio / BW: body weight on the day of sacrifice: sacrifice day 5; for Colon length / Colon weight / Colon-to-BW ratio: colon-to-body weight ratio: geometric mean ± SEM; for BW: body weight on the day of sacrifice: mean ± SEM, n=8
Experimental: (§1) Induction of acute colitis. Acute colitis was induced by giving mice with 2.5% DSS (MP Biomedicals) in a drinking water for 5 consecutive days. The DSS administration was taken place in two separate days; where the mice were divided into two groups based on their body weight before the day of the DSS administration.
(§2) Route of drug administration.
(§3) Treatment doses. Diacerein was administered at 2 dose levels of 30 and 60 mg/kg, once daily for 5 days.
(§4) Animals. Eight-week-old female C57BL/6 mice were obtained from Japan SLC, Inc. (Japan). All animals used in the study were housed and cared in accordance with the Japanese Pharmacological Society Guidelines for Animal Use.
The average body weight of mice is about 18-22 grams.
The viability, clinical signs and behavior were monitored daily. Body weight was recorded before the treatment. […] Mice were sacrificed by exsanguinations through direct cardiac puncture under isoflurane anesthesia (Pfizer Inc.). Colon length and weight were measured from the end of the cecum to the anus.
(§5) The pharmacological effects of aloe-emodin, emodin, and rhein were also respectively tested using the same protocol described above.

DSS-induced colitis mice [2] = assay: DSS-induced acute colitis in mouse: disease activity index (DAI) score; conditions: for DAI: Diacerein 30 and 60 mg/kg; for decrease in fecal blood score than the DSS-induced vehicle group: not statistically significant
Experimental: as §1, §2, §3, §4
Measurement of disease activity index score. A disease activity index (DAI) was calculated daily by summation of the following parameters: • (i) Weight loss (0=no weight loss; 1=1-5% weight loss; 2=6-10% weight loss; 3=11-15% weight loss; and 4=>15% weight loss); • (ii) Occult blood positivity (0=no bleeding; 1=occult blood test (+); 2=occult blood test (++); 3=occult blood test (+++); and 4=gross bleeding from the anus); and • (iii) Stool consistency (0=normal stools; 2=loose stools; 4=diarrhea).
as §5

DSS-induced colitis mice [3] = assay: DSS-induced acute colitis in mouse: histological analysis of HE-stained colon sections; conditions: for loss/damage of crypt and epithelium in colon sections vs DSS-induced vehicle group: FIGS. 5B-C, same protocol, dose not given; for loss of crypt and epithelium in HE-stained colon sections vs Vehicle group: FIG. 5A
Experimental: as §1, §2, §3, §4
Histological analyses. For HE staining, sections were cut from paraffin blocks of colon tissue prefixed in 10% neutral buffered formalin (Wako Pure Chemical Industries, Japan) and stained with Lillie-Mayer's Hematoxylin (Muto Pure Chemicals Co., Ltd., Japan) and eosin solution (Wako Pure Chemical Industries). Representative photos of the changes observed were captured from each group.
as §5

DSS-induced colitis mice [4] = assay: DSS-induced acute colitis in mouse: macroscopic scoring of colon tissue (colonic damage score); conditions: for colonic damage score / diarrhea score / thickness score / ulceration score: sacrifice day 5
Experimental: as §1, §2, §3, §4
Macroscopic scoring of colon tissue. Colonic damage was scored using the published criteria of measurement (Wallace et al, Gastroenterology, 1992, 102, 18-27). […]

[5] = summary b147-b150, same protocol, dose not given
[6] = summary b148-b149, same protocol, dose not given
[7] = Diacerein 30 mg/kg PO QD day 0-4
[8] = Diacerein 60 mg/kg PO QD day 0-4
[9] = summary b149-b150, same protocol, dose not given
[10] = Mesalazine 20 mg/kg PO QD day 0-4
[11] = Mesalazine 100 mg/kg PO QD day 0-4
[12] = Mesalazine 100 mg/kg, Day 2 and 3
[13] = Mesalazine, dose not given, Day 2 and 3
[14] = both Mesalazine groups (20 and 100 mg/kg), Day 5

O=C1c2cccc(O)c2C(=O)c2c(O)cc(CO)cc21 [Aloe-emodin, 1,8-Dihydroxy-3-(hydroxymethyl)anthraquinone]
colon-to-body weight ratio vs DSS-induced vehicle group (in words) (DSS-induced colitis mice [1]; same protocol, dose not given): significant improvement in the colon-to-body weight ratio | prevention of the body weight loss by DSS-induction (in words) (DSS-induced colitis mice [1]; same protocol, dose not given): able to prevent the body weight loss | DAI results (in words) (DSS-induced colitis mice [2]; same protocol, dose not given): effective | body weight score (in words) (DSS-induced colitis mice [2]; [5]): significant effects on reducing the body weight score | fecal blood score (in words) (DSS-induced colitis mice [2]; [6]): significant effects on reducing the fecal blood score | loss/damage of crypt and epithelium in colon sections vs DSS-induced vehicle group (DSS-induced colitis mice [3]): less loss of crypt and epithelium; also recorded: clearly reduced

CC(=O)Oc1cccc2c1C(=O)c1c(OC(C)=O)cc(C(=O)O)cc1C2=O [Diacerein, 1,8-Diacetoxy-3-carboxyanthraquinone]
Colon length (DSS-induced colitis mice [1]; [7]): 5.6 ± 0.2 cm | Colon weight (DSS-induced colitis mice [1]; [7]): 211 ± 10 mg | Colon-to-BW ratio: colon-to-body weight ratio (DSS-induced colitis mice [1]; [7]): 1.2 ± 0.1% | BW: body weight on the day of sacrifice (DSS-induced colitis mice [1]; [7]): 17.8 ± 0.1 g | Colon length (DSS-induced colitis mice [1]; [8]): 5.4 ± 0.3 cm | Colon weight (DSS-induced colitis mice [1]; [8]): 211 ± 0.1 mg | Colon-to-BW ratio: colon-to-body weight ratio (DSS-induced colitis mice [1]; [8]): 1.2 ± 0.1% | BW: body weight on the day of sacrifice (DSS-induced colitis mice [1]; [8]): 17.8 ± 0.3 g | body weight changes (in words) (DSS-induced colitis mice [1]; Diacerein groups (30 and 60 mg/kg PO QD), 5-day treatment): maintain the body weights close to the Sham animals | increase in body weight on the day of sacrifice than the DSS-induced vehicle group (DSS-induced colitis mice [1]; both Diacerein groups (30 and 60 mg/kg PO QD), significant): 6.6% | fecal blood score vs Vehicle group (in words) (DSS-induced colitis mice [2]; Diacerein 30 mg/kg, during the treatment): decreased slight fecal blood | fecal blood score vs Vehicle group (in words) (DSS-induced colitis mice [2]; Diacerein 60 mg/kg, during the treatment): more significant reduction | DAI (DSS-induced colitis mice [2]; Day 4 (vehicle 6.4)): ~5.1 | DAI (DSS-induced colitis mice [2]; Day 5 (vehicle 7.1)): ~6.3 | body weight score (DSS-induced colitis mice [2]; Diacerein treatment groups (30 and 60 mg/kg), Day 4, p<0.05 (vehicle 1.0)): 0.1-0.3 | body weight score (DSS-induced colitis mice [2]; Diacerein treatment groups (30 and 60 mg/kg), Day 5 (vehicle 1.1)): 0.6-0.9 | decrease in fecal blood score than the DSS-induced vehicle group (DSS-induced colitis mice [2]; both Diacerein groups (30 and 60 mg/kg), Day 5): 11.4% | colonic damage score (DSS-induced colitis mice [4]; [7]): 4.1 ± 0.1 | diarrhea score (DSS-induced colitis mice [4]; [7]): 1.0 ± 0.0 | thickness score (DSS-induced colitis mice [4]; [7]): 1.0 ± 0.0 | ulceration score (DSS-induced colitis mice [4]; [7]): 2.1 ± 0.1 | decrease in colonic damage score than the DSS-induced vehicle group (DSS-induced colitis mice [4]; Diacerein 30 mg/kg, not statistically significant): 6.8% | diarrhea score vs DSS-induced vehicle group (in words) (DSS-induced colitis mice [4]; Diacerein 60 mg/kg): lower effect on diarrhea score than the DSS-induced vehicle group, but the observed effect was not statistically significant | colonic damage score (DSS-induced colitis mice [4]; [8]): 3.8 ± 0.1 | thickness score (DSS-induced colitis mice [4]; [8]): 0.9 ± 0.0 | ulceration score (DSS-induced colitis mice [4]; [8]): 2.0 ± 0.0 | decrease in colonic damage score than the DSS-induced vehicle group (DSS-induced colitis mice [4]; Diacerein 60 mg/kg, significant, p<0.05): 13.6% | loss of crypt and epithelium in HE-stained colon sections vs Vehicle group (DSS-induced colitis mice [3]; Diacerein treatment groups (30 and 60 mg/kg)): less loss of crypt and epithelium

Cc1cc(O)c2c(c1)C(=O)c1cc(O)cc(O)c1C2=O [Emodin, 1,3,8-Trihydroxy-6-methyl-9,10-anthracenedione]
colon weight vs DSS-induced vehicle group (in words) (DSS-induced colitis mice [1]; same protocol, dose not given): significant improvement in colon weight | colon-to-body weight ratio vs DSS-induced vehicle group (in words) (DSS-induced colitis mice [1]; same protocol, dose not given): significant reduction in the colon-to-body weight ratio | prevention of the body weight loss by DSS-induction (in words) (DSS-induced colitis mice [1]; same protocol, dose not given): able to prevent the body weight loss | DAI results (in words) (DSS-induced colitis mice [2]; same protocol, dose not given): effective | body weight score (in words) (DSS-induced colitis mice [2]; [5]): significant effects on reducing | fecal blood score (in words) (DSS-induced colitis mice [2]; [6]): significant effects on reducing | diarrheal stool score (in words) (DSS-induced colitis mice [2]; [9]): significant effects on reducing

Nc1ccc(O)c(C(=O)O)c1 [Mesalazine, 5-Amino-2-hydroxybenzoic acid]
colon weight vs DSS-induced vehicle group (in words) (DSS-induced colitis mice [1]; Mesalazine 20 mg/kg): significant improvement in colon weight | Colon length (DSS-induced colitis mice [1]; [10]): 5.0 ± 0.2 cm | Colon weight (DSS-induced colitis mice [1]; [10]): 202 ± 6 mg | Colon length (DSS-induced colitis mice [1]; [11]): 5.3 ± 0.3 cm | Colon weight (DSS-induced colitis mice [1]; [11]): 202 ± 8 mg | colon weight vs DSS-induced vehicle group (in words) (DSS-induced colitis mice [1]; Mesalazine (60 mg/kg)): lower effect on colon weight than the DSS-induced vehicle group | prevention of the body weight loss by DSS-induction (in words) (DSS-induced colitis mice [1]; Mesalazine (60 mg/kg)): able to prevent the body weight loss | improvement in colon length than the DSS-induced vehicle group (DSS-induced colitis mice [1]; both Mesalazine groups (20 and 100 mg/kg PO QD), not statistically significant): 3-9% | fecal blood score vs Vehicle group (in words) (DSS-induced colitis mice [2]; Mesalazine 20 mg/kg, only at Day 1): significant reduction | effect on DAI (in words) (DSS-induced colitis mice [2]; Mesalazine 20 mg/kg, throughout 5-day treatment): no effect | fecal blood score vs Vehicle group (in words) (DSS-induced colitis mice [2]; Mesalazine 100 mg/kg, Day 1 to 3): significant reduction | Diarrheal stool score vs Vehicle group (in words) (DSS-induced colitis mice [2]; [12]): significant reduction | effect on DAI (in words) (DSS-induced colitis mice [2]; [12]): significant reduction | effect on DAI (in words) (DSS-induced colitis mice [2]; Mesalazine 100 mg/kg, Day 4 or Day 5): no clear reduction in DAI | DAI results (in words) (DSS-induced colitis mice [2]; Mesalazine (60 mg/kg)): effective | body weight score (in words) (DSS-induced colitis mice [2]; Mesalazine (60 mg/kg)): significant effects on reducing the body weight score | diarrheal stool score (in words) (DSS-induced colitis mice [2]; [13]): significantly decreased | fecal blood score (in words) (DSS-induced colitis mice [2]; [13]): significantly decreased | body weight score (DSS-induced colitis mice [2]; both Mesalazine groups (20 and 100 mg/kg), Day 4): 1.0-1.3 | body weight score (DSS-induced colitis mice [2]; [14]): 1.6-1.9 | decrease in fecal blood score than the DSS-induced vehicle group (DSS-induced colitis mice [2]; [14]): 11.4% | diarrhea score vs DSS-induced vehicle group (in words) (DSS-induced colitis mice [4]; Mesalazine 20 mg/kg): significant decrease in diarrhea score | colonic damage score (DSS-induced colitis mice [4]; [10]): 3.5 ± 0.2 | thickness score (DSS-induced colitis mice [4]; [10]): 1.0 ± 0.0 | ulceration score (DSS-induced colitis mice [4]; [10]): 2.0 ± 0.0 | decrease in colonic damage score than the DSS-induced vehicle group (DSS-induced colitis mice [4]; Mesalazine 20 mg/kg, significant, p<0.05): 20.5% | colonic damage score (DSS-induced colitis mice [4]; [11]): 4.0 ± 0.0 | diarrhea score (DSS-induced colitis mice [4]; [11]): 1.0 ± 0.0 | thickness score (DSS-induced colitis mice [4]; [11]): 1.0 ± 0.0 | ulceration score (DSS-induced colitis mice [4]; [11]): 2.0 ± 0.0 | decrease in colonic damage score than the DSS-induced vehicle group (DSS-induced colitis mice [4]; Mesalazine 100 mg/kg, not statistically significant): 9.1% | loss of crypt and epithelium in HE-stained colon sections vs Vehicle group (DSS-induced colitis mice [3]; Mesalazine treatment alone (20 and 100 mg/kg)): No significant effect | loss/damage of crypt and epithelium in colon sections vs DSS-induced vehicle group (DSS-induced colitis mice [3]): less loss of crypt and epithelium | crypt and epithelium damages induced by DSS, microscopic examination of colon sections (DSS-induced colitis mice [3]; Mesalazine treatments (20 and 60 mg/kg)): clearly reduced

O=C(O)c1cc(O)c2c(c1)C(=O)c1cccc(O)c1C2=O [Rhein, 4,5-Dihydroxyanthraquinone-2-carboxylic acid]
colon weight vs DSS-induced vehicle group (in words) (DSS-induced colitis mice [1]; same protocol, dose not given): significant improvement in colon weight | colon-to-body weight ratio vs DSS-induced vehicle group (in words) (DSS-induced colitis mice [1]; same protocol, dose not given): significant reduction in the colon-to-body weight ratio | prevention of the body weight loss by DSS-induction (in words) (DSS-induced colitis mice [1]; same protocol, dose not given): able to prevent the body weight loss | DAI results (in words) (DSS-induced colitis mice [2]; same protocol, dose not given): effective | body weight score (in words) (DSS-induced colitis mice [2]; [5]): significant effects on reducing the body weight score | diarrheal stool score (in words) (DSS-induced colitis mice [2]; [9]): significant effects on reducing the diarrheal stool score | loss/damage of crypt and epithelium in colon sections vs DSS-induced vehicle group (DSS-induced colitis mice [3]): less loss of crypt and epithelium; also recorded: clearly reduced
